Measurements reported in DBAASP.
≈ marks a conversion by molar mass, not a printed value. Where “and” joins values, the source holds several entries; their conditions need not be identical. Equal values may be shown once. Each block holds one compound with its values, some of them ahead of it.

Experiments:
Assay in all cases: ≥ marks a high value that may be exact or a test limit, other limits are often not marked, values filed in µg/mL are converted to µM
[1] = test system: Candida albicans ATCC 36232
[2] = test system: Escherichia coli ATCC 2592
[3] = test system: Micrococcus luteus ATCC 9341
[4] = test system: Pseudomonas aeruginosa ATCC 9027
[5] = test system: Staphylococcus aureus ATCC 6538
[6] = test system: Candida albicans NCYC 1467
[7] = test system: Enterococcus faecalis NCTC 12697
[8] = test system: Escherichia coli NCTC 10418
[9] = test system: Pseudomonas aeruginosa ATCC 27853
[10] = test system: Staphylococcus aureus NCTC 10788
[11] = test system: Staphylococcus aureus NCTC 12493
[12] = test system: Escherichia coli DH5alpha
[13] = test system: Klebsiella pneumoniae ATCC 10031
[14] = test system: Salmonella enterica subsp. enterica serovar Typhimurium ATCC 14028
[15] = test system: Escherichia coli ATCC 10536
[16] = test system: Staphylococcus aureus ATCC 9144
[17] = test system: Bacillus subtilis ATCC 6633
[18] = test system: Candida albicans ATCC 20032
[19] = test system: Escherichia coli ATCC 25922
[20] = test system: Staphylococcus aureus ATCC 25923
[21] = test system: Staphylococcus aureus ATCC 12600
[22] = test system: Streptococcus mutans ATCC 25175
[23] = test system: Staphylococcus aureus ATCC 12493
Staphylococcus aureus = test system: Staphylococcus aureus
[24] = test system: Staphylococcus epidermidis ATCC 12228

MIC [1]: ≥ 166 µM | MIC [2]: ≥ 166 µM | MIC [3]: ≥ 166 µM | MIC [4]: > 166 µM | MIC [5]: 166 µM (≈ 200 µg/mL)
Compound: CC(C)C[C@H](NC(=O)[C@H](CS)NC(=O)[C@H](CCCCN)NC(=O)[C@H](C)NC(=O)[C@H](C)NC(=O)[C@H](CS)NC(=O)[C@H](C)NC(=O)[C@H](C)NC(=O)[C@@H](N)CC(=O)O)C(=O)N[C@@H](Cc1c[nH]c2ccccc12)C(=O)N[C@@H](CCCN=C(N)N)C(N)=O [DAACAAKCLWR]

MIC [6]: ≥ 90.5 µM | MIC [7]: ≥ 128 µM | MIC [8]: ≥ 512 µM | MIC [9]: > 512 µM | MIC [10]: 22.6 µM (≈ 52.3 µg/mL) | MIC [11]: ≥ 45.3 µM
Compound: CC[C@H](C)[C@H](NC(=O)CNC(=O)[C@H](CCC(N)=O)NC(=O)[C@@H](NC(=O)[C@H](C)NC(=O)[C@H](Cc1cnc[nH]1)NC(=O)[C@@H]1CCCN1C(=O)[C@@H](NC(=O)[C@H](CC(C)C)NC(=O)[C@@H]1CCCN1C(=O)[C@@H](NC(=O)[C@H](CC(C)C)NC(=O)[C@H](Cc1cnc[nH]1)NC(=O)[C@H](CCC(N)=O)NC(=O)[C@@H](NC(=O)[C@@H](N)Cc1ccccc1)[C@@H](C)CC)[C@@H](C)CC)[C@@H](C)CC)[C@@H](C)CC)C(=O)N[C@@H](CCCCN)C(=O)N[C@@H](CC(=O)O)C(=O)N[C@H](C(=O)N[C@@H](Cc1ccccc1)C(N)=O)[C@@H](C)CC [FIQHLIPLIPHAIQGIKDIF]

MIC [12]: 2.04 µM (≈ 3.13 µg/mL) | MIC [13]: 16.3 µM (≈ 25 µg/mL) | MIC [14]: 16.3 µM (≈ 25 µg/mL)
Compound: CC(C)C[C@H](NC(=O)[C@H](Cc1ccccc1)NC(=O)[C@H](CCCCN)NC(=O)[C@H](C)NC(=O)[C@H](C)NC(=O)[C@H](CC(C)C)NC(=O)[C@H](CCCCN)NC(=O)[C@H](CCCCN)NC(=O)[C@H](CC(C)C)NC(=O)[C@H](CC(C)C)NC(=O)[C@H](CCCCN)NC(=O)[C@H](CC(C)C)NC(=O)[C@@H](N)Cc1ccccc1)C(=O)O [FLKLLKKLAAKFL]

MIC [15]: 3.3 µM and 8.1 µM | MIC [12]: 3.1 µM (≈ 10 µg/mL) | MIC [16]: 3.2 µM (≈ 10.3 µg/mL)
Compound: CC[C@H](C)[C@H](NC(=O)[C@@H]1CCCN1C(=O)[C@@H]1CCCN1C(=O)[C@H](CO)NC(=O)[C@@H](NC(=O)[C@H](CCCCN)NC(=O)[C@H](CCCCN)NC(=O)[C@H](Cc1ccccc1)NC(=O)[C@H](CC(C)C)NC(=O)[C@H](CCCCN)NC(=O)[C@H](CCCCN)NC(=O)CNC(=O)[C@H](CCCCN)NC(=O)[C@H](CCCCN)NC(=O)[C@H](CCCN=C(N)N)NC(=O)[C@H](Cc1ccccc1)NC(=O)[C@H](CCCN=C(N)N)NC(=O)[C@H](CCCCN)NC(=O)[C@H](Cc1ccccc1)NC(=O)[C@H](CCCN=C(N)N)NC(=O)[C@@H](N)Cc1ccccc1)C(C)C)C(=O)N[C@@H](CC(C)C)C(=O)N[C@@H](CC(C)C)C(=O)N[C@@H](CC(C)C)C(=O)N[C@@H](Cc1cnc[nH]1)C(=O)N[C@@H](CC(C)C)C(N)=O [FRFKRFRKKGKKLFKKVSPPILLLHL]

MIC [17]: 1.2 µM (≈ 3.64 µg/mL) | MIC [15]: 2.2 µM (≈ 6.67 µg/mL) | MIC [12]: 2.5 µM (≈ 7.58 µg/mL) | MIC [16]: 3.1 µM (≈ 9.4 µg/mL)
Compound: CC[C@H](C)[C@H](NC(=O)[C@H](CCCN=C(N)N)NC(=O)[C@@H](NC(=O)[C@@H](NC(=O)[C@@H]1CCCN1C(=O)[C@@H](NC(=O)[C@@H](NC(=O)[C@@H](NC(=O)[C@@H]1CCCN1C(=O)CNC(=O)[C@H](Cc1ccc(O)cc1)NC(=O)[C@H](CCCCN)NC(=O)[C@H](CCCCN)NC(=O)[C@H](Cc1c[nH]c2ccccc12)NC(=O)[C@H](C)NC(=O)[C@H](CCCN=C(N)N)NC(=O)[C@H](CC(C)C)NC(=O)[C@@H](NC(=O)[C@H](CCCCN)NC(=O)[C@H](CCCN=C(N)N)NC(=O)CNC(=O)[C@H](CC(C)C)NC(=O)[C@H](CO)NC(=O)[C@H](CCCN=C(N)N)NC(=O)[C@H](C)NC(=O)CNC(=O)CN)[C@@H](C)CC)[C@@H](C)CC)[C@@H](C)CC)C(C)C)[C@@H](C)CC)[C@@H](C)CC)C(N)=O [GGARSLGRKILRAWKKYGPIIVPIIRI]

MIC [17]: ≥ 42.3 µM | MIC [18]: ≥ 42.3 µM | MIC [19]: 31.7 µM (≈ 75 µg/mL) | MIC [20]: 15.8 µM (≈ 37.5 µg/mL)
Compound: CC[C@H](C)[C@H](NC(=O)CN)C(=O)NCC(=O)NCC(=O)N[C@@H](C)C(=O)N[C@@H](CC(C)C)C(=O)N[C@@H](CC(C)C)C(=O)N[C@@H](CO)C(=O)N[C@@H](C)C(=O)NCC(=O)N[C@@H](CCCCN)C(=O)N[C@@H](CO)C(=O)N[C@@H](C)C(=O)N[C@@H](CC(C)C)C(=O)N[C@@H](CCCCN)C(=O)NCC(=O)N[C@@H](CC(C)C)C(=O)N[C@@H](C)C(=O)N[C@@H](CCCCN)C(=O)NCC(=O)N[C@@H](CC(C)C)C(=O)N[C@@H](C)C(=O)N[C@@H](CCC(=O)O)C(=O)N[C@@H](Cc1cnc[nH]1)C(=O)N[C@@H](Cc1ccccc1)C(N)=O [GIGGALLSAGKSALKGLAKGLAEHF]

MIC [19]: > 60.9 µM | MIC [9]: > 60.9 µM | MIC [21]: ≥ 60.9 µM | MIC [22]: ≥ 60.9 µM
Compound: CC[C@H](C)[C@H](NC(=O)[C@H](C)NC(=O)CNC(=O)[C@H](Cc1ccccc1)NC(=O)[C@H](CC(C)C)NC(=O)CN)C(=O)N[C@@H](C)C(=O)NCC(=O)N[C@@H](Cc1ccccc1)C(=O)N[C@H](C(=O)N[C@@H](CCC(=O)O)C(=O)N[C@@H](CC(N)=O)C(=O)NCC(=O)N[C@@H](Cc1c[nH]c2ccccc12)C(=O)N[C@@H](CCC(=O)O)C(=O)NCC(=O)N[C@@H](CCSC)C(=O)N[C@H](C(=O)N[C@@H](CC(=O)O)C(=O)NCC(N)=O)[C@@H](C)CC)[C@@H](C)CC [GLFGAIAGFIENGWEGMIDG]

MIC [17]: ≥ 60.1 µM | MIC [18]: ≥ 60.1 µM | MIC [19]: > 60.1 µM | MIC [20]: > 60.1 µM
Compound: CC[C@H](C)[C@H](N)C(=O)N[C@@H](CC(C)C)C(=O)NCC(=O)N1CCC[C@H]1C(=O)N[C@H](C(=O)N[C@@H](CC(C)C)C(=O)NCC(=O)N[C@@H](CC(C)C)C(=O)N[C@H](C(=O)NCC(=O)N[C@@H](CC(=O)O)C(=O)N[C@H](C(=O)N[C@@H](CC(C)C)C(=O)NCC(=O)N[C@@H](CC(=O)O)C(=O)N[C@@H](CC(C)C)C(=O)N[C@@H](CC(C)C)C(N)=O)[C@@H](C)O)C(C)C)C(C)C [ILGPVLGLVGDTLGDLL]

Compound: CC[C@H](C)[C@@H]1NC(=O)[C@H](CO)NC(=O)[C@H](CCCCN)NC(=O)[C@H]([C@@H](C)O)NC(=O)[C@H](Cc2c[nH]c3ccccc23)NC(=O)[C@@H](NC(=O)[C@H](CCCN=C(N)N)NC(=O)[C@H](CCCN=C(N)N)NC(=O)[C@H](CCCN=C(N)N)NC(=O)[C@H](CCC(N)=O)NC(=O)[C@H](CCCN=C(N)N)NC(=O)[C@H](CCCN=C(N)N)NC(=O)[C@H](CCCCN)NC(=O)[C@H](CCCCN)NC(=O)[C@@H](N)CCCN=C(N)N)CSSC[C@@H](C(=O)O)NC(=O)[C@@H]2CCCN2C(=O)[C@H](CCCCN)NC(=O)[C@@H]2CCCN2C(=O)[C@@H]2CCCN2C1=O [RKKRRQRRRCWTKSIPPKPC]
MIC [6]: 4 µM (≈ 10.3 µg/mL) | MIC [8]: ≥ 128 µM | MIC [9]: 256 µM (≈ 660 µg/mL) | MIC [23]: ≥ 256 µM | MIC [10]: ≥ 128 µM

MIC [17]: 7.54 µM (≈ 12.5 µg/mL) | MIC [1]: 15.1 µM (≈ 25 µg/mL) | MIC [2]: 30.2 µM (≈ 50 µg/mL) | MIC [3]: 15.1 µM (≈ 25 µg/mL) | MIC [4]: 30.2 µM (≈ 50 µg/mL) | MIC [5]: 15.1 µM (≈ 25 µg/mL) | MIC (Staphylococcus aureus): > 60.3 µM | MIC [24]: 7.54 µM (≈ 12.5 µg/mL)
Compound: CC(C)[C@H](NC(=O)[C@H](CS)NC(=O)[C@@H](NC(=O)[C@H](CCCN=C(N)N)NC(=O)[C@H](CCCCN)NC(=O)CNC(=O)[C@H](CC(N)=O)NC(=O)[C@H](CS)NC(=O)[C@H](Cc1ccc(O)cc1)NC(=O)CNC(=O)CNC(=O)[C@H](CO)NC(=O)[C@@H](N)CCCN=C(N)N)C(C)C)C(=O)N[C@@H](CS)C(=O)N[C@@H](CCCN=C(N)N)C(=O)O [RSGGYCNGKRVCVCR]

MIC [18]: ≥ 46.7 µM | MIC [20]: 11.7 µM (≈ 25 µg/mL)
Compound: CC(C)C[C@H](NC(=O)[C@H](C)NC(=O)[C@@H](N)CO)C(=O)N[C@H](C(=O)NCC(=O)N[C@H]1CSSC[C@@H](C(=O)N[C@@H](Cc2ccccc2)C(=O)NCC(=O)N[C@@H](CCCN=C(N)N)C(=O)NCC(=O)O)NC(=O)[C@@H]2CCCN2C(=O)[C@H](CC(N)=O)NC(=O)[C@@H]2CCCN2C(=O)[C@@H]2CCCN2C(=O)[C@H](Cc2ccc(O)cc2)NC(=O)[C@H](CO)NC(=O)[C@H](CCCCN)NC(=O)[C@H]([C@@H](C)O)NC(=O)[C@H](Cc2c[nH]c3ccccc23)NC1=O)C(C)C [SALVGCWTKSYPPNPCFGRG]
